The values below come from US11578055B2, “Triazacyclododecansulfonamide (“TCD”)-based protein secretion inhibitors” (KEZAR LIFE SCIENCES, priority 2018, dated 2023).

For data set [1], the system named is PD1 signal sequence plus 10 amino acids fused to Gaussia Luciferase (PD1-ss+10aa/Gaussia Luciferase). Nature of the data set: Dox Induced PD1-ss-Gluc Assay. Format: cell-based. To be noted: 24 hr, 293FRT/TO; read-out: 24 hr Dox Inducible PD1ssGluc 293FRT/TO: Mean IC50. A digest of the protocol:
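Compound dilutions in DMSO/media containing doxycycline were applied to a stable, inducible 293 T-REx line carrying the luciferase fusion, then incubated at 37 °C, 5% CO2. Where stereochemistry is not drawn, values relate to isomer mixtures.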

Data set [2] concerns full length TNFα (amino acids 1-233) fused to Gaussia Luciferase. Nature of the data set: Dox Induced TNFα-FL-Gluc Assay. It is filed as cell-based. To be noted: 24 hr, 293FRT/TO; read-out: 24 hr Dox Inducible TNFaFLGluc 293FRT/TO: Mean IC50. The essentials: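 Compounds diluted in DMSO/medium with doxycycline were incubated at 37° C, 5% CO2 with 293 T-REx cells stably carrying a Tet-regulated TNFα(1-233)-Gaussia luciferase construct. Data for structures drawn without stereochemistry refer to stereoisomer mixtures.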

Data set [3] concerns multiple myeloma cell line NCl-H929. Nature of the data set: H929 Cell Viability Assay. Format: cell-based, human. To be noted: Homo sapiens, NCI-H929, 48 h, H929, read-out: 48 hr H929 Viability Celltiter-Glo: Mean EC50. A digest of the protocol: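 Viability was determined by CellTiter-Glo luminescence after a 48 h, 37 °C exposure of NCI-H929 cells to serial compound dilutions in medium containing 10% FBS. Where stereochemistry is not shown, values refer to a mix of stereoisomers.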

Data set [4] concerns multiple myeloma cell line U266B1. Description: U266 Cell Viability Assay. It is filed as cell-based, human. The settings on record: Homo sapiens, U-266; 48 hr, U266; read-out: 48 hr U266 Viability Celltiter-Glo: Mean EC50. The essentials:
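Viability was measured by CellTiter-Glo luminescence after 48 h compound exposure at 37° C, 5% CO2. The cells were U266B1 multiple myeloma cells grown in RPMI 1640 plus 10% FBS. Where stereochemistry is not shown, values apply to the stereoisomer mixture.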

The nature of data set [5]: In Vitro Microsome Stability Assay (human). It is filed as in vitro ADME. To be noted: human, 30 min, NADPH. The essentials:
(§1)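 Species liver microsomes in potassium phosphate buffer were preincubated at 37 °C for 3–5 min with test compound (added from 0.25 mM DMSO stock), then started with NADPH. Samples at 0 and 30 min were quenched with acetonitrile containing internal standard and analysed by LC-MS/MS; % remaining at 30 min used analyte/IS AUC ratios relative to t=0.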

A short description of data set [6]: In Vitro Microsome Stability Assay (mouse). Format: in vitro ADME. The settings on record: mouse, 30 min, NADPH. The essentials:
as §1

Data set [7] in a line: In Vitro Microsome Stability Assay (rat). Format: in vitro ADME. The settings on record: rat, 30 min, NADPH. A digest of the protocol: as §1
Data set [8] can be described thus: In Vitro Microsome Stability Assay (monkey). To be noted: monkey, 30 min, NADPH. Format: in vitro ADME. The essentials: as §1

Consider `C=C1CN(S(=O)(=O)c2ccc(N(C)C)cc2)CCCN(CC2CCCCC2)CCCN(S(=O)(=O)N2CCc3nc(Cl)ccc3C2)C1` [A82, 4-({5-[(2-chloro-5,6,7,8-tetrahydro-1,6-naphthyridin-6-yl)sulfonyl]-9-(cyclohexylmethyl)-3-methylidene-1,5,9-triazacyclododecan-1-yl}sulfonyl)-N,N-dimethylaniline], for which the IC50 in data set [1] was determined as 30.5 nM; in data set [2], 1550 nM. Moreover, the 50% effective concentration (EC50) in data set [3] is 2300 nM; in data set [4], over 25 µM. The “Liver Microsome Stability-% Left after 30 min w/ NADPH (%) Human” value (shortened to “Liver Microsome Stability-% Left … (%) Human”) in data set [5] is 0.3%. Besides, the “Liver Microsome Stability-% Left after 30 min w/ NADPH (%) Mouse” value (“Liver Microsome Stability-% Left … (%) Mouse” for short) in data set [6] is recorded as 0.08%. Also, the “Liver Microsome Stability-% Left after 30 min w/ NADPH (%) Rat” value (“Liver Microsome Stability-% Left … (%) Rat” below) in data set [7] worked out at 0.16%. In addition, the “Liver Microsome Stability-% Left after 30 min w/ NADPH (%) Monkey” value (“Liver Microsome Stability-% Left … (%) Monkey” for short) in data set [8] is listed as 0.23%.

For `C=C1CN(S(=O)(=O)c2ccc(N(C)C)cc2)CCCN(CC2CCCCC2)CCCN(S(=O)(=O)N2CCN(c3ccccc3Cl)CC2)C1` [A83, 4-[(5-{[4-(2-chlorophenyl)piperazin-1-yl]sulfonyl}-9-(cyclohexylmethyl)-3-methylidene-1,5,9-triazacyclododecan-1-yl)sulfonyl]-N,N-dimethylaniline], the IC50 in data set [1] is 28.2 nM; in data set [2] it was 961 nM. The values for the EC50 in data set [3] and in data set [4] were 960 nM and over 25 µM, respectively. Moreover, the “Liver Microsome Stability-% Left … (%) Human” value in data set [5] is 39.3%. In data set [6], the “Liver Microsome Stability-% Left … (%) Mouse” value amounted to 23.4%. For the same molecule, the “Liver Microsome Stability-% Left … (%) Rat” value in data set [7] stood at 47.6%. Further, in data set [8], the “Liver Microsome Stability-% Left … (%) Monkey” value was determined as 34.9%.

Take `C=C1CN(S(=O)(=O)c2ccc(N(C)C)cc2)CCCN(CC2CCCCC2)CCCN(S(=O)(=O)N2CCN(c3cccc(Cl)c3)CC2)C1` [A84, 4-[(5-{[4-(3-chlorophenyl)piperazin-1-yl]sulfonyl}-9-(cyclohexylmethyl)-3-methylidene-1,5,9-triazacyclododecan-1-yl)sulfonyl]-N,N-dimethylaniline]: the values for the IC50 in data set [1] and in data set [2] were 176 nM and over 25000 nM, respectively. For the same molecule, the 50% effective concentration (EC50) in data set [3] was over 25000 nM; in data set [4], over 25 µM. In data set [5], the “Liver Microsome Stability-% Left … (%) Human” value was found to be 60.6%. The “Liver Microsome Stability-% Left … (%) Mouse” value in data set [6] was 68.3%. Moreover, in data set [7], the “Liver Microsome Stability-% Left … (%) Rat” value stood at 67.3%. The “Liver Microsome Stability-% Left … (%) Monkey” value in data set [8] is on record as 65.8%.

Turning to `C=C1CN(S(=O)(=O)c2ccc(N(C)C)cc2)CCCN(CC2CCCCC2)CCCN(S(=O)(=O)N2CCN(c3ccc(Cl)cc3)CC2)C1` [A85, 4-[(5-{[4-(4-chlorophenyl)piperazin-1-yl]sulfonyl}-9-(cyclohexylmethyl)-3-methylidene-1,5,9-triazacyclododecan-1-yl)sulfonyl]-N,N-dimethylaniline], the figures for the IC50 in data set [1] and in data set [2] were 87.5 nM and over 25000 nM, respectively. Moreover, the EC50 in data set [3] is over 25000 nM; in data set [4], over 25 µM. Also, in data set [5], the “Liver Microsome Stability-% Left … (%) Human” value came to 25.6%. Also, the “Liver Microsome Stability-% Left … (%) Mouse” value in data set [6] is recorded as 52.2%. For the same molecule, in data set [7], the “Liver Microsome Stability-% Left … (%) Rat” value is reported as 64.9%. In addition, the “Liver Microsome Stability-% Left … (%) Monkey” value in data set [8] stood at 42.9%.
